The subject of data set [1] is APP. Briefly: [35S] metabolic labeling of APP in 7PA2 CHO cells. The class given is cell-based. How it is done: FIGS. 5A-5D. […] Cells were treated for 18 hours, media was then replaced and conditioned in the presence of treatments for 24 hours before harvesting for ELISA assay. Error bars represent SEM for n=3 replicates. Statistics calculated from one-tailed Student's t-test. *p<0.05, **p<0.01, ***p<0.001 (FIG. 5A). Quantification of media and lysate immunoblots from 474 treatment (10 μM) of APP. Error bars represent Standard Deviation for n=3 replicates. Statistics calculated from one-tailed Student's t-test. *p<0.05, **p<0.01 ***p<0.001 (FIG. 5B). […] Statistics calculated from one-tailed Student's t-test. *p<0.05, **p<0.01, ***p<0.001 (FIG. 5C). […] Statistics calculated from one-tailed Student's t-test. *p<0.05, **p<0.01, ***p<0.001 (FIG. 5D).
[^35S] metabolic labeling experiments were performed as previously described^8. […] Band intensities were quantified by densitometry in ImageQuant. Fraction secreted was calculated using the equation: fraction secreted=[extracellular [^35S]-APP signal at t/(extracellular [^35S]-APP signal at t=0+intracellular[^35S]-APP signal at t=0)]. Fraction remaining was calculated using the equation: [(extracellular [^35S]-APP signal at t+intracellular [^35S]-APP signal at t)/(extracellular [^35S]-APP signal at t=0+intracellular [^35S]-APP signal at t=0)].

The test system of data set [2] is DNAJB9. Briefly: DNAJB9 expression in SHSY5Y cells overexpressing APP SW. It counts as cell-based.
The test system of data set [3] is SHSY5Y cells. Put plainly: TMRE staining of mitochondrial membrane potential in SHSY5Y cells. It counts as cell-based. The following applies: 10 μM, 72 hours. How it is done:
FIGS. 6A-6C. Histograms showing TMRE staining of SH-SY5Y cells transiently expressing empty vector (Mock) or Swedish mutant APP in the presence or absence of 474 (10 μM) for 72 hours (FIG. 6A). Quantification of TMRE staining in (A). Error bars represent SEM for n=3 replicates. Statistics calculated from one-tailed Student's t-test. *p<0.05, **p<0.01, ***p<0.001 (FIG. 613). Graph showing relative luminescence from CellTiterGlo assay of SH-SY5Y cells transiently expressing empty vector or Swedish mutant APP cultured in galactose media for 72 hours in the presence or absence of IRE1 activator 474 (10 μM). Error bars represent SEM for n=3 replicates. Statistics calculated from one-tailed Student's t-test. *p<0.05, **p<0.01, ***p<0.001 (FIG. 6C).
Cells were treated as indicated then incubated with TMRE dye (200 nM) for 30 mins at 37° C. Samples were collected by trypsinization. Trypsin was neutralized by washing into cell culture media and then samples were washed twice in DPBS. […] Fluorescence intensity of TMRE was recorded on the PE channel of a Novocyte Flow Cytometer (ACEA Biosciences, Inc.). Data are presented as mean of the fluorescence intensity from 3 experiments. For each experiment, 10,000 cells per condition in triplicates were recorded.
Next, mitochondrial membrane potential was monitored in SHSY5Y cells overexpressing APP^SW and that had been treated with 474. […]

Data set [4] in a line: Toxicity, body weight and food intake in DIO mice. The class given is in vivo. How it is done:
FIGS. 7A-7D. RT-PCR of Xbp1s and the IRE1/XBP1s target gene Erdj4 from adipose tissue post single IP dose of 474 (FIG. 7A). Liver RNAseq profiles of ATF6, IRE1 and PERK target genes expressed as log 2 fold change of chronic 474 treatment compared to vehicle (FIG. 7B). Body weight (FIG. 7C) and food intake (FIG. 70) over 6 weeks of dosing.
To test the efficacy of pharmacologic IRE1 activation in mitigating T2D, we chronically administered 474 by once-daily IP injections at 50 mg/kg for a period of 6 weeks to Diet-Induced Obese (DIO) mice, a model of T2D.

Data set [5] has as its system pancreatic islets. Put plainly: Glucose stimulated insulin secretion in islets isolated from treated mice. The following applies: relative to vehicle-treated controls. The class given is in vivo, mouse. The text has this: FIGS. 8A-8E. Oral glucose tolerance test in DIO mice treated with either Vehicle or 474 for 3 weeks (n=8) (FIG. 8A). Serum glucose and insulin levels post 4 weeks of dosing with 474 or vehicle (FIG. 8B). Glucose stimulated insulin secretion in islets isolated from 474 or vehicle treated mice. (FIG. 8C). Hepatic triglyceride content (FIG. 8D) and gene expression profiles of gluconeogenic genes (FIG. 8E) at 6 weeks post dosing.
This effect can be rationalized, at least in part, by enhanced pancreatic f-cell function in 474-treated […], as shown by our studies in isolated pancreatic islets from vehicle- and 474-treated mice. […] Given the well-documented link between IRE1 and hepatic metabolism in T2D^55, we also examined markers of liver function after 474 treatment. We found reduced liver triglyceride accumulation in 474-treated mice relative to controls (FIG. 80).

As to `Cc1ccc(OCCN(C)C(=O)Cn2cc(NC(=O)CCOc3ccccc3)cn2)cc1` [Compound 474], in data set [1], the APP degradation result is listed as “increased APP degradation” and the “secretion of soluble APP into the media” value is “reduced the secretion of soluble APP”. Moreover, the DNAJB9 expression result in data set [2] is “further increased”. In data set [3] (SHSY5Y overexpressing APP SW), the “APP SW-associated reductions in mitochondrial membrane potential” value was “prevented”. In data set [3] (mock-transfected cells), the mitochondrial membrane potential entry is given as “did not influence”. In data set [4] (6-week dosing period), the “body weight and food intake” value is “remaining similar in all groups”. Also, the toxicity result in data set [4] (DIO mice, once-daily IP 50 mg/kg, 6 weeks) is listed as “no evident toxicity”. In addition, the “insulin secretion from islets upon stimulation with glucose” value in data set [5] was “dramatic increase”.

(Values after US11426402B2, “IRE1 activating compounds for use in therapy” (The Scripps Research Institute, priority 2019, dated 2022).)
